What was measured:
Assay in all cases: KINOMEscan
Assay type in all cases: binding
PRKR = PRKR (Homo sapiens (Human), UniProt P19525); details: read-out: percent of control
Method: (§1) In vitro profiling of Compound I-2 (1 μM) was performed using the DiscoveRx KINOMEscan® platform.

LATS2 = LATS2 (Homo sapiens (Human), UniProt Q9NRM7); details: read-out: percent of control
Method: as §1

CSNK1G2 = CSNK1G2 (Homo sapiens (Human), UniProt P78368); details: read-out: percent of control
Method: as §1

TLK2 = TLK2 (Homo sapiens (Human), UniProt Q86UE8); details: read-out: percent of control
Method: as §1

STK16 = STK16 (Homo sapiens (Human), UniProt O75716); details: read-out: percent of control
Method: as §1

CAMKK2 = CAMKK2 (Homo sapiens (Human), UniProt Q96RR4); details: read-out: percent of control
Method: as §1

YANK2 = YANK2 (Homo sapiens (Human), UniProt Q9NY57); details: read-out: percent of control
Method: as §1

FLT3 (ITD,D835V) = details: 1 μM
Method: as §1

PAK2 = PAK2 (Homo sapiens (Human), UniProt Q13177); details: read-out: percent of control
Method: as §1

ICK = ICK (Homo sapiens (Human), UniProt Q9UPZ9); details: read-out: percent of control
Method: as §1

YSK4 = YSK4 (Homo sapiens (Human), UniProt Q56UN5); details: read-out: percent of control
Method: as §1

SRMS = SRMS (Homo sapiens (Human), UniProt Q9H3Y6); details: read-out: percent of control
Method: as §1

[1] = target: RPS6KA5 (Kin.Dom.1-N-terminal) (Homo sapiens (Human), UniProt O75582); details: read-out: percent of control
Method: as §1

PRKCH = PRKCH (Homo sapiens (Human), UniProt P24723); details: read-out: percent of control
Method: as §1

S6K1 = S6K1 (Homo sapiens (Human), UniProt P23443); details: read-out: percent of control
Method: as §1

EIF2AK1 = EIF2AK1 (Homo sapiens (Human), UniProt Q9BQI3); details: read-out: percent of control
Method: as §1

CTK = CTK (Homo sapiens (Human), UniProt P42679); details: read-out: percent of control
Method: as §1

TEC = TEC (Homo sapiens (Human), UniProt P42680); details: read-out: percent of control
Method: as §1

QSK = QSK (Homo sapiens (Human), UniProt Q9Y2K2); details: read-out: percent of control
Method: as §1

GFR(L747-S752del, P753S) = target: GFR(L747-S752del, P753S (Homo sapiens (Human), UniProt P00533, DEL747-752/P753S)); details: read-out: percent of control
Method: as §1

AKT2 = AKT2 (Homo sapiens (Human), UniProt P31751); details: read-out: percent of control
Method: as §1

CDK11 = CDK11 (Homo sapiens (Human), UniProt Q9BWU1); details: read-out: percent of control
Method: as §1

PDPK1 = PDPK1 (Homo sapiens (Human), UniProt O15530); details: read-out: percent of control
Method: as §1

MELK = MELK (Homo sapiens (Human), UniProt Q14680); details: read-out: percent of control
Method: as §1

EGFR(G719S) = EGFR(G719S) (Homo sapiens (Human), UniProt P00533, G719S); details: read-out: percent of control
Method: as §1

DYRK1B = DYRK1B (Homo sapiens (Human), UniProt Q9Y463); details: read-out: percent of control
Method: as §1

BRAF = BRAF (Homo sapiens (Human), UniProt P15056); details: read-out: percent of control
Method: as §1

MST3 = MST3 (Homo sapiens (Human), UniProt Q9Y6E0); details: read-out: percent of control
Method: as §1

p38-gamma = p38-gamma (Homo sapiens (Human), UniProt P53778); details: read-out: percent of control
Method: as §1

IRAK4 = IRAK4 (Homo sapiens (Human), UniProt Q9NWZ3); details: read-out: percent of control
Method: as §1

SRC = SRC (Homo sapiens (Human), UniProt P12931); details: read-out: percent of control
Method: as §1

PIK3CA(M1043I) = PIK3CA(M1043I) (Homo sapiens (Human), UniProt P42336, M1043I); details: read-out: percent of control
Method: as §1

MEK2 = MEK2 (Homo sapiens (Human), UniProt P36507); details: read-out: percent of control
Method: as §1

PDGFRA = PDGFRA (Homo sapiens (Human), UniProt P16234); details: read-out: percent of control
Method: as §1

DRAK2 = DRAK2 (Homo sapiens (Human), UniProt O94768); details: read-out: percent of control
Method: as §1

BTK = BTK (Homo sapiens (Human), UniProt Q06187); details: read-out: percent of control
Method: as §1

AURKC = AURKC (Homo sapiens (Human), UniProt Q9UQB9); details: read-out: percent of control
Method: as §1

DAPK1 = DAPK1 (Homo sapiens (Human), UniProt P53355); details: read-out: percent of control
Method: as §1

ALK = ALK (Homo sapiens (Human), UniProt Q9UM73); details: read-out: percent of control
Method: as §1

p38-gamma, sequence (P53778 whole entry): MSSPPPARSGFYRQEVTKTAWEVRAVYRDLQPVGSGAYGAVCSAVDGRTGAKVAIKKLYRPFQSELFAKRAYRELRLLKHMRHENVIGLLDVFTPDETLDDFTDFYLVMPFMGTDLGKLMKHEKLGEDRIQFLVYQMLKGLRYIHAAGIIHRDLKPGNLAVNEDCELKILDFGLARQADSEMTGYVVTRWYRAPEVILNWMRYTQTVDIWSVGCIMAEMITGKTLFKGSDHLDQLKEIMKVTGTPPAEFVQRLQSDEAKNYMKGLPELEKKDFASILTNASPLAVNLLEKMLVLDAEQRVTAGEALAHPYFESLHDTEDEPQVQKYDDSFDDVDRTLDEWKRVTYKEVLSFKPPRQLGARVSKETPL
AURKC, sequence (Q9UQB9 whole entry): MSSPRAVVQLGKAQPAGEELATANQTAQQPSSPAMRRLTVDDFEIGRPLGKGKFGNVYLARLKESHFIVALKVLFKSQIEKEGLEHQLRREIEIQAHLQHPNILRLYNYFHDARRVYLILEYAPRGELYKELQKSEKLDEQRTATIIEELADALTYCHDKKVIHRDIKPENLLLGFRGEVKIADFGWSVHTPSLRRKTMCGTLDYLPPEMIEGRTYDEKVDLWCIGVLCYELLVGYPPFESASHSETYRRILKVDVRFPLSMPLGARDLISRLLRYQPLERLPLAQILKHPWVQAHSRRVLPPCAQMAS
PRKR, sequence (P19525 whole entry): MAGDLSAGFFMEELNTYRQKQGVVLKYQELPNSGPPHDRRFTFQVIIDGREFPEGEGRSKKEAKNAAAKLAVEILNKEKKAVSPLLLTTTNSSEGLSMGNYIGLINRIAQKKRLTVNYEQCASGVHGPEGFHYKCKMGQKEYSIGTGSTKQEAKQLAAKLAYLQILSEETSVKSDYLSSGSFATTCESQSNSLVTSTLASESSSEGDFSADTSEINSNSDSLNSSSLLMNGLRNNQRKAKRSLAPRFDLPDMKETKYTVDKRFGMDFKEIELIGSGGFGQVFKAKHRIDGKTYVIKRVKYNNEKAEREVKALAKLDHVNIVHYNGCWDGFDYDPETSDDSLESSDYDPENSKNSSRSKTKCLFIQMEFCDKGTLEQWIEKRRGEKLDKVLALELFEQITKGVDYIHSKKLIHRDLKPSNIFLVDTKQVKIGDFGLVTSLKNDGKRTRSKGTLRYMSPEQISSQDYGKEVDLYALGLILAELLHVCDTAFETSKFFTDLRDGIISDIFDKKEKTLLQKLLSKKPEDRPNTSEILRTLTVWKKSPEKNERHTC
MEK2, sequence (P36507 whole entry): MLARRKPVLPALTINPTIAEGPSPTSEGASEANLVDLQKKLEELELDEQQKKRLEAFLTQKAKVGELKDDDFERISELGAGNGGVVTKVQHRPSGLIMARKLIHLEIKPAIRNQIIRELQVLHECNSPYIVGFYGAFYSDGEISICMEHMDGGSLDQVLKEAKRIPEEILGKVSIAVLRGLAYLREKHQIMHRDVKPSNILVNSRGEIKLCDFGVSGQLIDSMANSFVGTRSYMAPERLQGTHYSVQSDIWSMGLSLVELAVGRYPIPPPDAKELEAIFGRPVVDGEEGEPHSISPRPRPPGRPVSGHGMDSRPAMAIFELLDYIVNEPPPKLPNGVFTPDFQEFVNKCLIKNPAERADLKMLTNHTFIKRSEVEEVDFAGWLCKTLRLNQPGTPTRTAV
PDPK1, sequence (O15530 whole entry): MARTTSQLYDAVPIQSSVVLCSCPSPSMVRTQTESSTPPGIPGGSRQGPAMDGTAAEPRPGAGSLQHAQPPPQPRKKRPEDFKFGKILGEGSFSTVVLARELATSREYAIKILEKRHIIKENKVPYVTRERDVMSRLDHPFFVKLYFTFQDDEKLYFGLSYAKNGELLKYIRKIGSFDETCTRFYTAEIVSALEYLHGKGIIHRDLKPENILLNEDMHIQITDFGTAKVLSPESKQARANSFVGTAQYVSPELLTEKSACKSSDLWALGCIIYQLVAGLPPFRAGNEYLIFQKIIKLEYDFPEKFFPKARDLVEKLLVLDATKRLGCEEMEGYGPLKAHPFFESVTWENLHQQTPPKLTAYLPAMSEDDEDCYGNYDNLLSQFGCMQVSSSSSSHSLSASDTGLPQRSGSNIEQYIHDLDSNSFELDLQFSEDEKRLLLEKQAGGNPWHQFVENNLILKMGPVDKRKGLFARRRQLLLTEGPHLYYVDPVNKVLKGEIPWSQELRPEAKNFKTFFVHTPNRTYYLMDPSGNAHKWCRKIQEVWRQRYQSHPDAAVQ
S6K1, sequence (P23443 whole entry): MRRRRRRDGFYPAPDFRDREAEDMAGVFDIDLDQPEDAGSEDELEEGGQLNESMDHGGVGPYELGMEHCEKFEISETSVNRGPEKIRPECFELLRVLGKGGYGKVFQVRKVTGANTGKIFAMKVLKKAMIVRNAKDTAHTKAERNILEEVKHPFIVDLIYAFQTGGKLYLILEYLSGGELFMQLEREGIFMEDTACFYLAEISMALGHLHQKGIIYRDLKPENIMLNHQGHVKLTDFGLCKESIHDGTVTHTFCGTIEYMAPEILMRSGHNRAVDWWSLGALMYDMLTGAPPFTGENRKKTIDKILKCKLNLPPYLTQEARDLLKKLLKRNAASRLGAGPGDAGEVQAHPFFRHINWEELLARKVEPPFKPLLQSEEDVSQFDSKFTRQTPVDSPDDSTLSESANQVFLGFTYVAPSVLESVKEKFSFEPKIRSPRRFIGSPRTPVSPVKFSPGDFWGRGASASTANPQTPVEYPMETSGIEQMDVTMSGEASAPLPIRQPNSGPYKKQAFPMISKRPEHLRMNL
MST3, sequence (Q9Y6E0 whole entry): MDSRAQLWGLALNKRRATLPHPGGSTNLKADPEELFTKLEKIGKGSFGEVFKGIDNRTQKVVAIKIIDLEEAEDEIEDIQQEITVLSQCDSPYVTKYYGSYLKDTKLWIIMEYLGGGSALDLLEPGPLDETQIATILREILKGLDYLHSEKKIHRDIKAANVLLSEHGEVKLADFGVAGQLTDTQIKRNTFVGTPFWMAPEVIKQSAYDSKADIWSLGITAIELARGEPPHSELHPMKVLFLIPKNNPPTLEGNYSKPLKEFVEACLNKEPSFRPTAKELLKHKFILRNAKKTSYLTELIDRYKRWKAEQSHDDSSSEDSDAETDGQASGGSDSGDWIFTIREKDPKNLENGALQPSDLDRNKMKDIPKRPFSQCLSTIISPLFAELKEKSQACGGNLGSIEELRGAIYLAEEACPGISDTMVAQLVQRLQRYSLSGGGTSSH
TLK2, sequence (Q86UE8 whole entry): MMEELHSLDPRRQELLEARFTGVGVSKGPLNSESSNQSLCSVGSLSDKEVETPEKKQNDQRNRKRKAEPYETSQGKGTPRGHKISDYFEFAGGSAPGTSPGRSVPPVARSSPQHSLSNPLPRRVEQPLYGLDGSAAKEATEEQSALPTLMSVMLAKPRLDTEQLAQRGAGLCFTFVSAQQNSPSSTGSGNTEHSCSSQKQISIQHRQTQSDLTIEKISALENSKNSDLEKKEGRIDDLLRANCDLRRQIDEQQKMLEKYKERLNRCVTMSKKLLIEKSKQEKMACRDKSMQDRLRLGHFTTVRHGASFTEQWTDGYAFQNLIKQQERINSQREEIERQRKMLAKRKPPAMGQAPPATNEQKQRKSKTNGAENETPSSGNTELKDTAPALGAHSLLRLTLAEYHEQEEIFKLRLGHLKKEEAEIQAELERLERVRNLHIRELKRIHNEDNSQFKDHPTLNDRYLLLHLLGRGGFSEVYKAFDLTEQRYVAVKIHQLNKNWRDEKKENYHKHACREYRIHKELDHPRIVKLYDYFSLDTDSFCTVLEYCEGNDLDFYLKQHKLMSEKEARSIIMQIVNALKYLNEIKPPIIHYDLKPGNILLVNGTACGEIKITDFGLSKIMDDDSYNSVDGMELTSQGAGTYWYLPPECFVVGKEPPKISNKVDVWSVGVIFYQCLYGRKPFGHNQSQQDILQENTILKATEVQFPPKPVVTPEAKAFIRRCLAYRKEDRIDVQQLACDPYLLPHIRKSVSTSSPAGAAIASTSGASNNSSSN
ICK, sequence (Q9UPZ9 whole entry): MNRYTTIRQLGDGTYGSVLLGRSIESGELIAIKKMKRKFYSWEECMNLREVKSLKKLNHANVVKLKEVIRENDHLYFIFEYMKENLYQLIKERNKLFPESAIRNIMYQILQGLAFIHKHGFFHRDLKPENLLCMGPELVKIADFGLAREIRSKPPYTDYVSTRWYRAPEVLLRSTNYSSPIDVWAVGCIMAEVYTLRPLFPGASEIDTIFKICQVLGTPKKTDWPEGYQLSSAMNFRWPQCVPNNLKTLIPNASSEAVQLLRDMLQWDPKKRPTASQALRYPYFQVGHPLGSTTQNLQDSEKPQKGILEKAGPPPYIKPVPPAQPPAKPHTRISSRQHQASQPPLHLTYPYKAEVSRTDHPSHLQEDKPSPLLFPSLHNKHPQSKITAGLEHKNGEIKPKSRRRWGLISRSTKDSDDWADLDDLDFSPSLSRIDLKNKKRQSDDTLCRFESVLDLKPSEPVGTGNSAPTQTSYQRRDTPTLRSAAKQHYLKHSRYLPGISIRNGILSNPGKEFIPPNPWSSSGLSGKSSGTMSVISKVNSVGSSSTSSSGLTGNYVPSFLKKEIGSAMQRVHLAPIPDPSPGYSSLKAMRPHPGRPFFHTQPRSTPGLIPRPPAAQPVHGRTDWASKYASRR
CSNK1G2, sequence (P78368 whole entry): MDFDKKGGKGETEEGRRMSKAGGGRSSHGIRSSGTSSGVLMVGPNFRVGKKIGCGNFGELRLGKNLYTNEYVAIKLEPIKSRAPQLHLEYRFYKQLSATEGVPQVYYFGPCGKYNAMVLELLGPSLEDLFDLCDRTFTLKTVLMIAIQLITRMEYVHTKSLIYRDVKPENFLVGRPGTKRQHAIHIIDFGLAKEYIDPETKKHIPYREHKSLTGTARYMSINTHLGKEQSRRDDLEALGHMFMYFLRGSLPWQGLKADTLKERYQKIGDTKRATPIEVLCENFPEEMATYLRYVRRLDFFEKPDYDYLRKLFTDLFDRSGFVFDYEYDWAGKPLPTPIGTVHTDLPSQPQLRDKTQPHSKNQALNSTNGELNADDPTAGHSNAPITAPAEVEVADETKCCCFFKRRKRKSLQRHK

Structure (SMILES) | remaining binding at 1 µM (PRKR) [%] | remaining binding at 1 µM (LATS2) [%] | remaining binding at 1 µM (CSNK1G2) [%] | remaining binding at 1 µM (TLK2) [%] | remaining binding at 1 µM (STK16) [%] | remaining binding at 1 µM (CAMKK2) [%] | remaining binding at 1 µM (YANK2) [%] | percent of control (FLT3 (ITD,D835V)) [%] | remaining binding at 1 µM (PAK2) [%] | remaining binding at 1 µM (ICK) [%] | remaining binding at 1 µM (YSK4) [%] | remaining binding at 1 µM (SRMS) [%] | remaining binding at 1 µM [1] [%] | remaining binding at 1 µM (PRKCH) [%] | remaining binding at 1 µM (S6K1) [%] | remaining binding at 1 µM (EIF2AK1) [%] | remaining binding at 1 µM (CTK) [%] | remaining binding at 1 µM (TEC) [%] | remaining binding at 1 µM (QSK) [%] | remaining binding at 1 µM (GFR(L747-S752del, P753S)) [%] | further results
CCN1CCN(Cc2cc(NC(=O)c3ccc(C)c(-c4ccc5nc(NC(=O)C6CC6)cn5n4)c3)cc(C(F)(F)F)c2)CC1 [Compound I-2, 3-(2-(cyclopropanecarboxamido)imidazo[1,2-b]pyridazin-6-yl)-N-(3-((4-ethylpiperazin-1-yl)methyl)-5-(trifluoromethyl)phenyl)-4-methylbenzamide] | 97 | 79 | 92 | 100 | 90 | 28 | 91 | 61 | 93 | 50 | 30 | 86 | 73 | 86 | 52 | 100 | 38 | 100 | 92 | 19 | remaining binding at 1 µM (AKT2): 100%; remaining binding at 1 µM (CDK11): 0.6%; remaining binding at 1 µM (PDPK1): 89%; remaining binding at 1 µM (MELK): 95%; remaining binding at 1 µM (EGFR(G719S)): 45%; remaining binding at 1 µM (DYRK1B): 62%; remaining binding at 1 µM (BRAF): 11%; remaining binding at 1 µM (MST3): 85%; remaining binding at 1 µM (p38-gamma): 0%; remaining binding at 1 µM (IRAK4): 26%; remaining binding at 1 µM (SRC): 0%; remaining binding at 1 µM (PIK3CA(M1043I)): 100%; remaining binding at 1 µM (MEK2): 95%; remaining binding at 1 µM (PDGFRA): 1.1%; remaining binding at 1 µM (DRAK2): 89%; remaining binding at 1 µM (BTK): 68%; remaining binding at 1 µM (AURKC): 84%; remaining binding at 1 µM (DAPK1): 100%; remaining binding at 1 µM (ALK): 8.7%
CCN1CCN(Cc2cc(NC(=O)c3ccc(C)c(-c4ccc5nc(NC(=O)C6CC6)cn5c4)c3)cc(C(F)(F)F)c2)CC1 [Compound I-6, 3-(2-(cyclopropanecarboxamido)imidazo[1,2-a]pyridin-6-yl)-N-(3-((4-ethylpiperazin-1-yl)methyl)-5-(trifluoromethyl)phenyl)-4-methylbenzamide] | 95 | 85 | 100 | 98 | 95 | 41 | 100 | 76 | 70 | 68 | 29 | 79 | 66 | 100 | 49 | 92 | 31 | 100 | 83 | 12 | remaining binding at 1 µM (AKT2): 98%; remaining binding at 1 µM (CDK11): 2.7%; remaining binding at 1 µM (PDPK1): 83%; remaining binding at 1 µM (MELK): 100%; remaining binding at 1 µM (EGFR(G719S)): 35%; remaining binding at 1 µM (DYRK1B): 87%; remaining binding at 1 µM (BRAF): 21%; remaining binding at 1 µM (MST3): 92%; remaining binding at 1 µM (p38-gamma): 9.4%; remaining binding at 1 µM (IRAK4): 33%; remaining binding at 1 µM (SRC): 0%; remaining binding at 1 µM (PIK3CA(M1043I)): 73%; remaining binding at 1 µM (MEK2): 95%; remaining binding at 1 µM (PDGFRA): 1.2%; remaining binding at 1 µM (DRAK2): 98%; remaining binding at 1 µM (BTK): 87%; remaining binding at 1 µM (AURKC): 91%; remaining binding at 1 µM (DAPK1): 100%; remaining binding at 1 µM (ALK): 16%

Source: patent publication US20230391768A2, “IMIDAZOPYRIDINE DERIVATIVES AND AZA-IMIDAZOPYRIDINE DERIVATIVES AS JANUS KINASE 2 INHIBITORS AND USES THEREOF” (Dana-Farber Cancer Institute, Inc., priority 2018, published 2023)
